Results: the NIST ThermoML archive (doi:10.1016/j.jct.2015.07.046)
Numbers after ± are expanded uncertainties.

Experiment: activity coefficient (dimensionless); of the first substance listed, at infinite dilution; xn = mol fraction of the nth substance listed
Conditions: 101.3 kPa, Liquid, Chromatography, x1 = 0

Structure (SMILES)	activity coefficient (313.15 K)	activity coefficient (323.15 K)	activity coefficient (333.15 K)	activity coefficient (343.15 K)	activity coefficient (353.15 K)	activity coefficient (363.15 K)
Cc1ccccc1C [1,2-dimethylbenzene] + CCn1cc[n+](C)c1.COP(=O)([O-])OC	10.2 ± 1.1	9.8 ± 1	9.59 ± 1	9.3 ± 0.98	9.14 ± 0.96	9 ± 0.95
Cc1ccccc1C [1,2-dimethylbenzene] + COP(=O)([O-])OC.Cn1cc[n+](C)c1	12.7 ± 1.3	12.5 ± 1.3	12.4 ± 1.3	12.2 ± 1.3	12.1 ± 1.3	12 ± 1.3
Cc1cccc(C)c1 [1,3-dimethylbenzene] + CCn1cc[n+](C)c1.COP(=O)([O-])OC	12.4 ± 1.3	11.8 ± 1.2	11.2 ± 1.2	10.8 ± 1.1	10.5 ± 1.1	9.99 ± 1.1
Cc1cccc(C)c1 [1,3-dimethylbenzene] + COP(=O)([O-])OC.Cn1cc[n+](C)c1	14.6 ± 1.5	14.4 ± 1.5	14.2 ± 1.5	14.2 ± 1.5	14.1 ± 1.5	13.9 ± 1.5
Cc1ccc(C)cc1 [1,4-dimethylbenzene] + CCn1cc[n+](C)c1.COP(=O)([O-])OC	12.1 ± 1.3	11.5 ± 1.2	10.9 ± 1.1	10.5 ± 1.1	9.99 ± 1.1	9.53 ± 1
Cc1ccc(C)cc1 [1,4-dimethylbenzene] + COP(=O)([O-])OC.Cn1cc[n+](C)c1	13.8 ± 1.4	13.6 ± 1.4	13.5 ± 1.4	13.4 ± 1.4	13.2 ± 1.4	13.1 ± 1.4
CC(C)CC(C)(C)C [2,2,4-trimethylpentane] + CCn1cc[n+](C)c1.COP(=O)([O-])OC	183 ± 19	170 ± 18	158 ± 17	143 ± 15	132 ± 14	119 ± 13
CC(C)CC(C)(C)C [2,2,4-trimethylpentane] + COP(=O)([O-])OC.Cn1cc[n+](C)c1	318 ± 34	301 ± 32	284 ± 30	270 ± 28	244 ± 26	229 ± 24
c1ccccc1 [benzene] + CCn1cc[n+](C)c1.COP(=O)([O-])OC	3.51 ± 0.37	3.33 ± 0.35	3.2 ± 0.34	3.12 ± 0.33	3.02 ± 0.32	2.87 ± 0.3
c1ccccc1 [benzene] + COP(=O)([O-])OC.Cn1cc[n+](C)c1	3.64 ± 0.38	3.62 ± 0.38	3.61 ± 0.38	3.59 ± 0.38	3.57 ± 0.38	3.56 ± 0.37
C1CCCCC1 [cyclohexane] + CCn1cc[n+](C)c1.COP(=O)([O-])OC	53.9 ± 5.7	48.9 ± 5.2	44 ± 4.6	40.6 ± 4.3	37.7 ± 4	32.9 ± 3.5
C1CCCCC1 [cyclohexane] + COP(=O)([O-])OC.Cn1cc[n+](C)c1	58.4 ± 6.2	56 ± 5.9	52.6 ± 5.5	50.9 ± 5.4	48 ± 5.1	45.7 ± 4.8
C1=CCCCC1 [cyclohexene] + CCn1cc[n+](C)c1.COP(=O)([O-])OC	25.4 ± 2.7	22.4 ± 2.4	20 ± 2.1	18.7 ± 2	16.9 ± 1.8	15.5 ± 1.6
C1=CCCCC1 [cyclohexene] + COP(=O)([O-])OC.Cn1cc[n+](C)c1	32.7 ± 3.5	31.6 ± 3.3	30.7 ± 3.2	30.1 ± 3.2	29.1 ± 3.1	28.3 ± 3
CCCCCCCCCC [decane] + CCn1cc[n+](C)c1.COP(=O)([O-])OC	430 ± 45	388 ± 41	354 ± 37	316 ± 33	294 ± 31	245 ± 26
CCCCCCCCCC [decane] + COP(=O)([O-])OC.Cn1cc[n+](C)c1	503 ± 53	480 ± 51	466 ± 49	448 ± 47	431 ± 46	414 ± 44

Structure (SMILES)	activity coefficient (313.15 K)	activity coefficient (323.15 K)	activity coefficient (333.15 K)	activity coefficient (343.15 K)	activity coefficient (353.15 K)	activity coefficient (363.15 K)
CCCCCCC [heptane] + CCn1cc[n+](C)c1.COP(=O)([O-])OC	162 ± 17	151 ± 16	138 ± 15	124 ± 13	111 ± 12	97.7 ± 10
CCCCCCC [heptane] + COP(=O)([O-])OC.Cn1cc[n+](C)c1	297 ± 31	279 ± 29	258 ± 27	243 ± 26	231 ± 24	216 ± 23
CCCCCC [hexane] + CCn1cc[n+](C)c1.COP(=O)([O-])OC	139 ± 15	122 ± 13	107 ± 11	87.6 ± 9.2	72.2 ± 7.6	61.5 ± 6.5
CCCCCC [hexane] + COP(=O)([O-])OC.Cn1cc[n+](C)c1	260 ± 27	246 ± 26	230 ± 24	218 ± 23	203 ± 21	187 ± 20
CC1CCCCC1 [methylcyclohexane] + CCn1cc[n+](C)c1.COP(=O)([O-])OC	77.7 ± 8.2	68.3 ± 7.2	61.5 ± 6.5	55.9 ± 5.9	50.5 ± 5.3	45.5 ± 4.8
CC1CCCCC1 [methylcyclohexane] + COP(=O)([O-])OC.Cn1cc[n+](C)c1	83.4 ± 8.8	80.8 ± 8.5	78.3 ± 8.2	75.4 ± 7.9	73 ± 7.7	69.9 ± 7.4
CCCCCCCCC [nonane] + CCn1cc[n+](C)c1.COP(=O)([O-])OC	272 ± 29	243 ± 26	225 ± 24	207 ± 22	197 ± 21	182 ± 19
CCCCCCCCC [nonane] + COP(=O)([O-])OC.Cn1cc[n+](C)c1	400 ± 42	384 ± 40	368 ± 39	351 ± 37	345 ± 36	327 ± 34
CCCCCCCC [octane] + CCn1cc[n+](C)c1.COP(=O)([O-])OC	202 ± 21	187 ± 20	173 ± 18	158 ± 17	144 ± 15	132 ± 14
CCCCCCCC [octane] + COP(=O)([O-])OC.Cn1cc[n+](C)c1	340 ± 36	325 ± 34	302 ± 32	285 ± 30	270 ± 28	248 ± 26
CCCCC [pentane] + CCn1cc[n+](C)c1.COP(=O)([O-])OC	125 ± 13	106 ± 11	88.5 ± 9.3	69.8 ± 7.4	60.5 ± 6.4	52.9 ± 5.6
CCCCC [pentane] + COP(=O)([O-])OC.Cn1cc[n+](C)c1	245 ± 26	230 ± 24	217 ± 23	201 ± 21	184 ± 19	170 ± 18
C=Cc1ccccc1 [styrene] + CCn1cc[n+](C)c1.COP(=O)([O-])OC	5.45 ± 0.57	5.29 ± 0.56	5.16 ± 0.54	5.01 ± 0.53	4.86 ± 0.51	4.71 ± 0.49
C=Cc1ccccc1 [styrene] + COP(=O)([O-])OC.Cn1cc[n+](C)c1		6.62 ± 0.7	6.61 ± 0.69	6.6 ± 0.69	6.58 ± 0.69	6.57 ± 0.69
Cc1ccccc1 [toluene] + CCn1cc[n+](C)c1.COP(=O)([O-])OC	6.45 ± 0.68	6.14 ± 0.65	5.94 ± 0.62	5.73 ± 0.6	5.56 ± 0.58	5.4 ± 0.57
Cc1ccccc1 [toluene] + COP(=O)([O-])OC.Cn1cc[n+](C)c1	7.57 ± 0.8	7.54 ± 0.79	7.51 ± 0.79	7.48 ± 0.79	7.47 ± 0.79	7.45 ± 0.78
